Reference: patent US20240366511A1, “ORAL SOLID DOSE FORMULATIONS” (GLAXOSMITHKLINE INTELLECTUAL PROPERTY DEVELOPMENT LIMITED, priority 2021, published 2024)
Structures can show the parent of a compound that is named as a salt. Where two headings read alike, the source gives them in different places.

How the values were obtained:
[1] = Stability of crystal form under ambient conditions; type: physicochemical
Experimental: In another preparation, a spatula (<20 mg) of gepotidacin mesylate dihydrate (Form 1) was suspended in IPA (<1.5 ml). The suspension was heated with a heat gun to dissolve most of the solids, and then left to slowly cool to room temperature. The resultant crystals were filtered and analysed by DSC, TGA, and XRPD.

[2] = Solubility of gepotidacin mesylate dihydrate (Form 1) in water and simulated fluids; type: physicochemical; conditions: 20 °C, thermodynamic from solid, as free base, 20-25° C., read-out: Solubility (mg/mL of free base at 20-25° C.)
Experimental: The solubility of gepotidacin mesylate dihydrate (Form 1) was determined in simulated gastric fluid pH 1.6 (SGF), fasted state simulated intestinal fluid pH 6.5 (FaSSIF) and fed state simulated intestinal fluid pH 6.5 (FeSSIF) at ambient room temperature (20-25 C).

| stability of the form [1] | solubility ([2]; Water) [mg/mL] | solubility ([2]; fasted state simulated intestinal fluid (FaSSIF), FaSSIF (pH 6.5)) [mg/mL] | solubility ([2]; fed state simulated intestinal fluid (FeSSIF), FeSSIF (pH 6.5)) [mg/mL] | solubility ([2]; simulated gastric fluid (SGF), simulated gastric fluid, SGF (pH 1.6)) [mg/mL] | SMILES |
| --- | --- | --- | --- | --- | --- |
| unstable under ambient conditions | – | – | – | – | CS(=O)(=O)O.O=c1cnc2ccc(=O)n3c2n1C[C@H]3CN1CCC(NCc2cc3c(cn2)OCCC3)CC1 [gepotidacin mesylate anhydrate] |
| – | > 180 | 113 | 99 | 175 | O=c1ccc2ncc(=O)n3c2n1C[C@H]3CN1CCC(NCc2cc3c(cn2)OCCC3)CC1 [gepotidacin mesylate dihydrate (Form 1)] |
